Consider two compounds from paper PMC10094543 (International Journal of Molecular Sciences, 2023).

One experiment concerns NgBCCP. Format: biochemical, Neisseria gonorrhoeae.
In experiment [1] the target is T1, NgBCCP (Neisseria gonorrhoeae bacterial peroxidase) (Neisseria gonorrhoeae, UniProt Q5F5Z9).
T1 construct: gene NGO_1769; globular domain only (lipid anchor and AAEAP linker absent), pelB signal peptide, C-terminal His-tag; E. coli BL21(DE3) with pEC86; 38 kDa; di-heme c; Ca-dependent monomer/dimer equilibrium, dimer in crystal
T1 sequence (Q5F5Z9 59-387): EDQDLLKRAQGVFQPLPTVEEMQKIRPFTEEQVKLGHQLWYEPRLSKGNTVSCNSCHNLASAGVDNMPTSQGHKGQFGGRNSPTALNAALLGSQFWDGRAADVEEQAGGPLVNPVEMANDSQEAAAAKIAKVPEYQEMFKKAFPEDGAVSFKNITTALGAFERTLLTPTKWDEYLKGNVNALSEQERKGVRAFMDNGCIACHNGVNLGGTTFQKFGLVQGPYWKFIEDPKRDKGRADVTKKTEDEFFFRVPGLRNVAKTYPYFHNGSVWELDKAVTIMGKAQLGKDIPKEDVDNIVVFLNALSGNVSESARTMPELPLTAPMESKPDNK
Nature of the experiment: steady-state kinetics, ABTS oxidation at […] nm. Format: biochemical.

In experiment [2] the target is mixed-valence NgBCCP (P heme). Conditions: read-out: Kapp (apparent dissociation constant); pH 6.
The test system of another experiment is P. aeruginosa BCCP. Conditions: cited from earlier work.
The target of the next experiment is N. europaea BCCP. Conditions: pH 7; cited from earlier work.

Values joined by “and” are separate entries in the source; they are usually repeats but may differ in a detail not shown here. Identical values can stand only once. Like-named read-outs stand apart in the source and are kept apart here.

For orientation: Ki means a measure of affinity in units of concentration, obtained from inhibition or displacement. Consider `c1c[nH]cn1` [imidazole], for which, in the experiment on NgBCCP, the Vmax app is 0.55 ± 0.01 µM/s and 0.49 ± 0.01 µM/s and 0.48 ± 0.01 µM/s and 0.65 ± 0.01 µM/s and 0.44 ± 0.02 µM/s and 0.63 ± 0.04 µM/s and 0.58 ± 0.02 µM/s; the “a (α)” value is recorded as 2.8; the “b (β)” value is given as 0.0; the mechanism of inhibition entry is listed as “partially uncompetitive”. Moreover, at NgBCCP (pH 7.5), the Ki worked out at 9 ± 4 mM and the mechanism of inhibition entry was “non-competitive/partially competitive”. The same compound came in with a Ki in experiment [1] of 9 ± 4 mM.

As for azide, the Kd in experiment [2] came out at 3.8 mM. Moreover, in the experiment with NgBCCP, the Vmax app is 0.56 ± 0.003 µM/s and 0.53 ± 0.004 µM/s and 0.71 ± 0.001 µM/s and 0.66 ± 0.010 µM/s and 0.59 ± 0.001 µM/s; the “a (α)” value stood at 2.4; the “b (β)” value was determined as 0.0. In the experiment on NgBCCP (pH 7.5), the mechanism of inhibition entry is “non-competitive/partially competitive”. Also, the inhibition mechanism result with P. aeruginosa BCCP is “non-competitive”. Further, the Ki on P. aeruginosa BCCP (pH 6) was 3.1 mM. Moreover, the Ki at N. europaea BCCP is 4.7 mM.
